We go through one molecule from EPA's ToxValDB 9.5 (doi:10.2903/j.efsa.2006.59r).

SMILES strings stand for the structures. Values after ≈ are worked out from the molar mass of the structure shown.

The test system of one series is Rattus norvegicus. To be noted: oral; for NOAEL: diet, neurology.
The subject of a further series is Orius insidiosus. The conditions noted are these: acute, duration: 7 days.
Another series concerns Tagia sp. To be noted: mortality.
In the next series the test system is Apis mellifera. The conditions noted are these: acute, mortality.
The next series concerns Daphnia magna. To be noted: chronic/long-term; duration: 21 days.

For the molecule `COP(=S)(OC)Oc1ccc([N+](=O)[O-])c(C)c1` [Fenitrothion], the LC50 was found to be 1.3 µg/mL (≈ 4.69 µM) in the series on Oncorhynchus mykiss (acute, duration: 96 hours, mortality); 231 mg/kg with Tagia sp. (acute); 23 mg/kg in the series with Bird (short-term, oral, feed, mortality). Besides, the NOEC came to 0.088 mg/L with Oncorhynchus mykiss (chronic/long-term, duration: 96 days); 2.5 mg/kg in the series with Tagia sp. (chronic/long-term); 2.34 mg/kg in the series on Bird (reproductive); 0.087 µg/L in the series on Daphnia magna. For the same molecule, the LD50 turned out to be 330 mg/kg-day in the series on Rattus norvegicus (acute, mortality); 0.16 µg/piece in the series on Apis mellifera (dermal); 0.2 µg/piece in the series with Apis mellifera (oral, unspecified); 2.3 mg/kg-day in the series with Bird (acute, oral, unspecified, mortality). Moreover, the no observed adverse effect level (NOAEL) in the series with Rattus norvegicus (chronic, duration: 2 years) is 0.5 mg/kg-day; in the series with Rattus norvegicus (subchronic, duration: 90 days), 1.32 mg/kg-day. Also, the LEL with Orius insidiosus (mortality) and in the series on Orius insidiosus (reproduction) was 715 g/ha throughout.

What is called NOAEL is the highest dose or exposure tested at which no adverse effect was seen.
